We go through one compound from EPA's ToxValDB 9.5 (doi:10.2903/j.efsa.2015.3984).

By NOAEL is commonly meant the highest tested level that showed no adverse finding.

The test system of one data set is Typhlodromus pyri. Put plainly: LR50; higher = less toxic. To be noted: chronic/long-term; duration: 7 days; mortality.
A further data set deals with Aphidius rhopalosiphi. Description: LR50; higher = less toxic. To be noted: acute; duration: 48 hours; mortality.
The subject of a further data set is Daphnia magna. The following applies: chronic/long-term; duration: 21 days.
The test system of a further data set is Oncorhynchus mykiss. The following applies: mortality.
Another data set relates to Lepomis macrochirus. The following applies: acute; duration: 96 hours; mortality.
Another data set deals with Coturnix japonica. The following applies: acute, oral.
Another data set deals with Colinus virginianus. The following applies: reproduction developmental.
Another data set deals with Canidae. To be noted: oral, Dog Other, organ weight.
In another data set the test system is Apis mellifera. To be noted: acute, duration: 48 hours, mortality.
The test system of a further data set is Rattus norvegicus. To be noted: chronic.
The test system of the next data set is Palaemonetes pugio. The following applies: acute; duration: 96 hours; mortality.
The next data set relates to Bibionidae. To be noted: chronic/long-term; duration: 28 days; development.
The subject of another data set is Mus musculus. To be noted: acute; oral; mortality.
For a further data set, the system named is Menidia beryllina. To be noted: acute; duration: 96 hours; mortality.

Where only a bound is given, the exact number is not on record here.

As for `COc1ncc(F)c2nc(S(=O)(=O)Nc3c(F)cccc3F)nn12` [Florasulam], the LR50 with Typhlodromus pyri and in the data set on Aphidius rhopalosiphi was above 15 g/ha throughout. Moreover, the NOEC with Daphnia magna turned out to be 23.4 mg/L; in the data set on Oncorhynchus mykiss (chronic/long-term, duration: 28 days) it was 119 mg/L; in the data set with Bibionidae it was 10 mg/L; in the data set on Tagia sp. (chronic/long-term), 0.203 mg/kg. The LC50 in the data set with Oncorhynchus mykiss (acute, duration: 96 hours) is above 100 µg/mL; in the data set with Lepomis macrochirus, above 100 µg/mL; in the data set on Coturnix japonica (diet) it was above 938 mg/kg-day; in the data set on Palaemonetes pugio, above 120 µg/mL; in the data set on Tagia sp. (acute, duration: 14 days, mortality), above 1320 mg/kg; with Menidia beryllina, above 122 µg/mL. The LD50 is 1050 mg/kg-day in the data set on Coturnix japonica (mortality); above 100 µg/piece in the data set with Apis mellifera (dermal); above 100 µg/piece in the data set on Apis mellifera (oral, unspecified); above 5000 mg/kg-day in the data set on Mus musculus. Further, the NOAEL in the data set on Colinus virginianus is 1500 mg/kg-day; in the data set with Canidae (chronic, duration: 1 years), 5 mg/kg-day; in the data set on Canidae (subchronic, duration: 90 days) it was 5 mg/kg-day; in the data set on Rattus norvegicus it was above 100 mg/kg-day.
